One assay concerns the target T1, Adrenergic β2 (Homo sapiens, UniProt P07550).
T1 construct: Adherent H292 cells were removed from tissue culture flasks; endogenous in cells; host or cells: H292 cells
As to the kind of experiment: Adrenergic β2 mediated cAMP production in H292 cells. Type of assay: cell-based. Conditions: for EC50: H292 cells, cAMP by AlphaScreen, 60 minutes at room temperature, rolipram 300 μM, read-out: β2 pEC50 (converted); for β2 Int Act: Intrinsic Activity as a fraction relative to the maximum activity determined for formoterol. The method, then: Adrenergic β2 mediated cAMP production
H292 cells were grown in 225 cm2 flasks incubator at 37° C., 5% CO2 in RPMI medium containing, 10% (v/v) FBS (foetal bovine serum) and 2 mM L-glutamine.
Adherent H292 cells were removed from tissue culture flasks by treatment with Accutase™ cell detachment solution for 15 minutes. Flasks were incubated for 15 minutes in a humidified incubator at 37° C., 5% CO2. Detached cells were re-suspended in RPMI media (containing 10% (v/v) FBS and 2 mM L-glutamine) at 0.05×10^6 cells per mL. 5000 cells in 100 μL were added to each well of a tissue-culture-treated 96-well plate and the cells incubated overnight in a humidified incubator at 37° C., 5% CO2. The culture media was removed and cells were washed twice with 100 μL assay buffer and replaced with 50 μL assay buffer (HBSS solution containing 10 mM HEPES pH7.4 and 5 mM glucose). Cells were rested at room temperature for 20 minutes after which time 25 μL of rolipram (1.2 mM made up in assay buffer containing 2.4% (v/v) dimethylsulphoxide) was added. Cells were incubated with rolipram for 10 minutes after which time test compounds were added and the cells were incubated for 60 minutes at room temperature. The final rolipram concentration in the assay was 300 μM and final vehicle concentration was 1.6% (v/v) dimethylsulphoxide. The reaction was stopped by removing supernatants, washing once with 100 μL assay buffer and replacing with 50 μL lysis buffer. The cell monolayer was frozen at −80° C. for 30 minutes (or overnight).
The concentration of cAMP (cyclic adenosine monophosphate) in the cell lysate was determined using AlphaScreen™ methodology. The frozen cell plate was thawed for 20 minutes on a plate shaker then 10 μL of the cell lysate was transferred to a 96-well white plate. 40 μL of mixed AlphaScreen™ detection beads pre-incubated with biotinylated cAMP, was added to each well and the plate incubated at room temperature for 10 hours in the dark. The AlphaScreen™ signal was measured using an EnVision spectrophotometer (Perkin-Elmer Inc.) with the recommended manufacturer's settings. cAMP concentrations were determined by reference to a calibration curve determined in the same experiment using standard cAMP concentrations. Concentration response curves for agonists were constructed and data was fitted to a four parameter logistic equation to determine both the pEC50 and Intrinsic Activity. Intrinsic Activity was expressed as a fraction relative to the maximum activity determined for formoterol in each experiment.
For orientation: Cyclic AMP is a second messenger, typically raised through Gs and lowered through Gi signalling.

Assay [1] addresses T2, recombinant human α1D receptor (Homo sapiens, UniProt P25100).
T2 construct: expressed in transfected cells; host or cells: HEK293
T2 sequence (P25100 1-572): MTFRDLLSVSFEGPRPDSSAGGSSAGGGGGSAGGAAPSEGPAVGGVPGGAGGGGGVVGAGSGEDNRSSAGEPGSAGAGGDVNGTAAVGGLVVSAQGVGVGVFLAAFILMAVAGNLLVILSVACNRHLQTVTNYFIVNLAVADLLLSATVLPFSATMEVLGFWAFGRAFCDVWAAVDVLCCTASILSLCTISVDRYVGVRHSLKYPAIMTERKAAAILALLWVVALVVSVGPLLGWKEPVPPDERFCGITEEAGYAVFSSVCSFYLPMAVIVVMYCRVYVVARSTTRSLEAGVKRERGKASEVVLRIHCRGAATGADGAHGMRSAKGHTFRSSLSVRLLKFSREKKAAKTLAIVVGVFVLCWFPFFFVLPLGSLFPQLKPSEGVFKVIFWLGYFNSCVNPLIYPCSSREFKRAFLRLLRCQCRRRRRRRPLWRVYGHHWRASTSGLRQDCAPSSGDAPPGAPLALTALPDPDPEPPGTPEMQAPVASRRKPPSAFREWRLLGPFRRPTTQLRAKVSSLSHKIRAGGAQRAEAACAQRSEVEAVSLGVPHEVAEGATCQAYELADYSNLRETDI
The assay is described as follows: Adrenergic α1D selectivity binding assay ([3H]-prazosin). Particulars: inhibition of [3H]-prazosin (0.3 nM) binding, HEK293 membranes; read-out: α1 bind pIC50 (converted). The method, then:
Membranes were prepared from human embryonic kidney 293 (HEK293) cells expressing recombinant human α1D receptor. These were diluted in Assay Buffer (50 mM HEPES, 1 mM EDTA, 0.1% gelatin, pH 7.4) to provide a final concentration of membranes that gave a clear window between maximum and minimum specific binding.
Assays were performed in U-bottomed 96-well polypropylene plates. 10 μL [^3H]-prazosin (0.3 nM final concentration) and 10 μL of test compound (10× final concentration) were added to each test well. For each assay plate 8 replicates were obtained for [^3H]-prazosin binding in the presence of 10 μL vehicle (10% (v/v) DMSO in Assay Buffer; defining maximum binding) or 10 μL BMY7378 (10 μM final concentration; defining non-specific binding (NSB)). Membranes were then added to achieve a final volume of 100 μL. The plates were incubated for 2 hours at room temperature and then filtered onto PEI coated GF/B filter plates, pre-soaked for 1 hour in Assay Buffer, using a 96-well plate Tomtec cell harvester. Five washes with 250 μL wash buffer (50 mM HEPES, 1 mM EDTA, pH 7.4) were performed at 4° C. to remove unbound radioactivity. The plates were dried then sealed from underneath using Packard plate sealers and MicroScint-O (50 μL) was added to each well. The plates were sealed (TopSeal A) and filter-bound radioactivity was measured with a scintillation counter (TopCount, Packard BioScience) using a 3-minute counting protocol.
Total specific binding (B0) was determined by subtracting the mean NSB from the mean maximum binding. NSB values were also subtracted from values from all other wells. […] Data was fitted to a four parameter logistic equation to determine the compound potency, which was expressed as pIC50 (negative log molar concentration inducing 50% inhibition of [^3H]-prazosin binding).

Assay [2] addresses T3, recombinant human Dopamine Subtype D2s receptors (Homo sapiens, UniProt P14416).
T3 construct: purchased Perkin Elmer
The assay is described as follows: Dopamine D2 selectivity binding assay ([3H]-spiperone). Conditions: inhibition of [3H]-spiperone (0.16 nM) binding; read-out: D2 bind pIC50 (converted). The method, then: Membranes containing recombinant human Dopamine Subtype D2s receptors were obtained from Perkin Elmer. These were diluted in Assay Buffer (50 mM HEPES, 1 mM EDTA, 120 mM NaCl, 0.1% gelatin, pH 7.4) to provide a final concentration of membranes that gave a clear window between maximum and minimum specific binding.
Assays were performed in U-bottomed 96-well polypropylene plates. 30 μL [^3H]-spiperone (0.16 nM final concentration) and 30 μL of test compound (10× final concentration) were added to each test well. For each assay plate 8 replicates were obtained for [^3H]-spiperone binding in the presence of 30 μL vehicle (10% (v/v) DMSO in Assay Buffer; defining maximum binding) or 30 μL Haloperidol (10 μM final concentration; defining non-specific binding (NSB)). Membranes were then added to achieve a final volume of 300 μL. The plates were incubated for 2 hours at room temperature and then filtered onto PEI coated GF/B filter plates, pre-soaked for 1 hour in Assay Buffer, using a 96-well plate Tomtec cell harvester. Five washes with 250 μL wash buffer (50 mM HEPES, 1 mM EDTA, 120 mM NaCl, pH 7.4) were performed at 4° C. to remove unbound radioactivity. The plates were dried then sealed from underneath using Packard plate sealers and MicroScint-O (50 μL) was added to each well. The plates were sealed (TopSeal A) and filter-bound radioactivity was measured with a scintillation counter (TopCount, Packard BioScience) using a 3-minute counting protocol.
Total specific binding (B0) was determined by subtracting the mean NSB from the mean maximum binding. NSB values were also subtracted from values from all other wells. […] Data was fitted to a four parameter logistic equation to determine the compound potency, which was expressed as pIC50 (negative log molar concentration inducing 50% inhibition of [^3H]-spiperone binding).

Structures are written as SMILES. Where a name gives a salt, the structure may show the parent alone.

T1 sequence (P07550 whole entry): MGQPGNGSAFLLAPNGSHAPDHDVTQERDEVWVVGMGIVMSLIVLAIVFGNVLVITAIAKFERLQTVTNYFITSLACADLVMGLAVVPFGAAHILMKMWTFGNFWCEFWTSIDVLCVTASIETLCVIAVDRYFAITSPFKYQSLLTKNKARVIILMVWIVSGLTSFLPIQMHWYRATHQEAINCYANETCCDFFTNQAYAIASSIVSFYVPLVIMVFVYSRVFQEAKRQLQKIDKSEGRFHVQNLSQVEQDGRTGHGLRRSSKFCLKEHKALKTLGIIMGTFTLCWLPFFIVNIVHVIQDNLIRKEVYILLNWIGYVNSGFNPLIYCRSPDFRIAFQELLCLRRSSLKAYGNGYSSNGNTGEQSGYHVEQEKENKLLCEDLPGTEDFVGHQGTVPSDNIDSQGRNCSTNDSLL
T3 sequence (P14416 1-414 isoform P14416-2): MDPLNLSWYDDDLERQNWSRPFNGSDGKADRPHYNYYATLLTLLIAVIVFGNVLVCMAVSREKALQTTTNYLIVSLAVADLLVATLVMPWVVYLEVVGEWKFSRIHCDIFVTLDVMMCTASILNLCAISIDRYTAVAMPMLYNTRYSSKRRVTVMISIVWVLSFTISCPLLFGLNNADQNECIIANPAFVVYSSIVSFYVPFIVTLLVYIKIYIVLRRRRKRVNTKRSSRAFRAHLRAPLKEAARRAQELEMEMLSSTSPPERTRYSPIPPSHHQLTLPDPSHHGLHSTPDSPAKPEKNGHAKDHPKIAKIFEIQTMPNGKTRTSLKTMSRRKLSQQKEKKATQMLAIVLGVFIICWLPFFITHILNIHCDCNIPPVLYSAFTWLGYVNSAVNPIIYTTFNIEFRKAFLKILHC

Consider `CC(C)N(CCNCCc1ccc(O)c2[nH]c(=O)sc12)C(=O)CCNCCc1ccccc1` [Example 1, N-(2-{[2-(4-Hydroxy-2-oxo-2,3-dihydro-1,3-benzothiazol-7-yl)ethyl]amino}ethyl)-N-isopropyl-N^3-(2-phenylethyl)-β-alaninamide bis-trifluoroacetic acid salt], for which, at Adrenergic β2, the EC50 was 20 nM and the “β2 Int Act” value was 0.78. Moreover, the IC50 in assay [1] was 251 nM. Also, the IC50 in assay [2] was 398 nM.
`CC(C)N(CCNCCc1ccc(O)c2[nH]c(=O)sc12)C(=O)CCNCCc1ccc(Cl)cc1` [Example 3, N^3-[2-(4-Chlorophenyl)ethyl]-N-(2-{[2-(4-hydroxy-2-oxo-2,3-dihydro-1,3-benzothiazol-7-yl)ethyl]amino}ethyl)-N-isopropyl-β-alaninamide bis-trifluoroacetic acid salt]: at Adrenergic β2, the EC50 was 39.8 nM and the “β2 Int Act” value was determined as 0.34. The IC50 in assay [1] is 251 nM. Further, in assay [2], the IC50 is 794 nM.
In the case of `Cc1cccc(CCNCCC(=O)N(CCNCCc2ccc(O)c3[nH]c(=O)sc23)CC(C)(C)C)c1` [Example 10, N-(2,2-Dimethylpropyl)-N-(2-{[2-(4-hydroxy-2-oxo-2,3-dihydro-1,3-benzothiazol-7-yl)ethyl]amino}ethyl)-N^3-[2-(3-methylphenyl)ethyl]-β-alaninamide bis-trifluoroacetic acid salt], on Adrenergic β2, the EC50 is 5.01 nM and the “β2 Int Act” value amounted to 0.69. Besides, the IC50 in assay [1] is 251 nM. In assay [2], the IC50 was 794 nM.
As to `C[C@H](CNCCC(=O)N(CCNCCc1ccc(O)c2[nH]c(=O)sc12)C1CCCCC1)c1ccccc1` [Example 18, N-Cyclohexyl-N-(2-{[2-(4-hydroxy-2-oxo-2,3-dihydro-1,3-benzothiazol-7-yl)ethyl]amino}ethyl)-N^3-[(2S)-2-phenylpropyl]-β-alaninamide bis-trifluoroacetic acid salt], at Adrenergic β2, the EC50 is 3.98 nM and the “β2 Int Act” value is on record as 0.89. Further, the IC50 in assay [1] is 200 nM. In addition, the IC50 in assay [2] is 794 nM.
The matching figures for `CC(C)(Cc1ccccc1)NCCC(=O)N(CCNCCc1ccc(O)c2[nH]c(=O)sc12)C1CCCCC1` [Example 19, N-Cyclohexyl-N^3-(1,1-dimethyl-2-phenylethyl)-N-(2-{[2-(4-hydroxy-2-oxo-2,3-dihydro-1,3-benzothiazol-7-yl)ethyl]amino}ethyl)-β-alaninamide bis-trifluoroacetic acid salt]: 39.8 nM, 0.70, 398 nM and 1000 nM.
Taken in the same sequence, the figures for `C[C@@H](CNCCC(=O)N(CCNCCc1ccc(O)c2[nH]c(=O)sc12)C1CCCCC1)c1ccccc1` [Example 20, N-Cyclohexyl-N-(2-{[2-(4-hydroxy-2-oxo-2,3-dihydro-1,3-benzothiazol-7-yl)ethyl]amino}ethyl)-N^3-[(2R)-2-phenylpropyl]-β-alaninamide bis-trifluoroacetic acid salt] were 10 nM, 0.97, 251 nM and 794 nM.
Regarding `CC(C)(CNCCC(=O)N(CCNCCc1ccc(O)c2[nH]c(=O)sc12)C1CCCCC1)c1ccccc1` [Example 21, N-Cyclohexyl-N-(2-{[2-(4-hydroxy-2-oxo-2,3-dihydro-1,3-benzothiazol-7-yl)ethyl]amino}ethyl)-N^3-(2-methyl-2-phenylpropyl)-β-alaninamide bis-trifluoroacetic acid salt], at Adrenergic β2, the EC50 was 31.6 nM and the “β2 Int Act” value is reported as 0.85. The IC50 in assay [1] is 251 nM. Moreover, the IC50 in assay [2] was 3980 nM.
`O=C(CCNCCc1ccccn1)N(CCNCCc1ccc(O)c2[nH]c(=O)sc12)C1CCCCC1` [Example 33, N-Cyclohexyl-N-(2-{[2-(4-hydroxy-2-oxo-2,3-dihydro-1,3-benzothiazol-7-yl)ethyl]amino}ethyl)-N^3-(2-pyridin-2-ylethyl)-β-alaninamide bis-trifluoroacetic acid salt]: at Adrenergic β2, the EC50 is 15.8 nM and the “β2 Int Act” value was determined as 0.78. Moreover, the IC50 in assay [1] is 100 nM. Besides, the IC50 in assay [2] is 631 nM.
Regarding `CC(=O)OCC(C)(C)CN(CCNCCc1ccc(O)c2[nH]c(=O)sc12)C(=O)CCNCCc1ccc(Cl)cc1` [Example 39, 3-[{N-[2-(4-Chlorophenyl)ethyl]-β-alanyl}(2-{[2-(4-hydroxy-2-oxo-2,3-dihydro-1,3-benzothiazol-7-yl)ethyl]amino}ethyl)amino]-2,2-dimethylpropyl acetate diacetic acid salt], on Adrenergic β2, the EC50 is 251 nM and the “β2 Int Act” value was determined as 0.58. Besides, the IC50 in assay [1] is 631 nM. For the same compound, in assay [2], the IC50 is 1260 nM.

The values are drawn from patent US20100022491A1, “4-HYDROXY-2-OXO-2,3-DIHYDRO-1,3-BENZOTHIAZOL-7YL COMPOUNDS FOR MODULATION OF B2-ADRENORECEPTOR ACTIVITY” (ASTRAZENECA AB, priority 2006, published 2010).
